Values quoted from earlier work as cited in patent US20070275871A1 (BIOREXIS TECHNOLOGY, INC., priority 2003, published 2007).
pKd: −log10 of the molar value. Where two headings read alike, the source gives them in different places. One block for each sequence: values may come before it.

Experiments:
[1] = biological target: T1, extracellular domain of EPO receptor (Homo sapiens, UniProt P19235)
T1 sequence (P19235 25-250 limits assumed): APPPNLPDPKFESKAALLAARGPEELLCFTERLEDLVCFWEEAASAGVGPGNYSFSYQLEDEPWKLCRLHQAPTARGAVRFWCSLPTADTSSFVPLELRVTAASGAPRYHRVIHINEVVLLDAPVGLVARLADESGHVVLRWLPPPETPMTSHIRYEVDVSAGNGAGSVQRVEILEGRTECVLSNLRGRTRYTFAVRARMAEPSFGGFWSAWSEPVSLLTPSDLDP

EPO receptor [2] = biological target: T2, EPO receptor (Homo sapiens, UniProt P19235)
T2 sequence (P19235 25-508): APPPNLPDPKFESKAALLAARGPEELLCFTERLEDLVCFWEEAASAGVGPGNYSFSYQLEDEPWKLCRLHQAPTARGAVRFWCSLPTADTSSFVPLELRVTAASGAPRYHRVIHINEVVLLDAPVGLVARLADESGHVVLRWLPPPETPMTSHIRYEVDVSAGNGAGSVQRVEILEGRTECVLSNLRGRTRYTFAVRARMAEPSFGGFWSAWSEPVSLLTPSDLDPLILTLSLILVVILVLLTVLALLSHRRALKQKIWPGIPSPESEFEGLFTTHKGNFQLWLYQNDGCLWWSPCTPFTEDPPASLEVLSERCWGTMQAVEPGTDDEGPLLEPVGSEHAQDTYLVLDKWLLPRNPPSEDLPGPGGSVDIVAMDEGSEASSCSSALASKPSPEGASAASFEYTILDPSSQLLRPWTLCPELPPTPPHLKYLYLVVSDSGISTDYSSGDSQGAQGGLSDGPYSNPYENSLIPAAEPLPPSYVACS

[3] = system: cell lines engineered to be responsive to EPO
[4] = system: nascent red blood cell production; details: mice, two different in vivo assays of nascent red blood cell production
EPO receptor [5] = biological target: T2, EPO receptor; details: N- and C-terminal deletions of EMP-1

Sequence: CRIGPITWVC
pKd ([1]; EPO domain-weak-binding consensus sequence, read-out: Kd): 2.00

pKd ([1]; read-out: affinity (Kd)): 6.70 | competition with EPO in receptor binding assays (EPO receptor [2]): competes with EPO
Sequence: GGTYSCHFGPLTWVCKPQGG [EMP-1]
cellular proliferation [3]: cause cellular proliferation | cascade of phosphorylation events and cell cycle progression (EPO responsive cells): induce a similar cascade of phosphorylation events and cell cycle progression | erythropoietic effects [4]: significant erythropoietic effects

activity in the assays for EPO mimetic action (EPO receptor [5]): minimal active peptide
Sequence: YSCHFGPLTWVCK [EMP-20]
